Among the data in patent US7332504B2, “Heterocyclic substituted aminoazacycles useful as central nervous system agents” (Abbott Laboratories, priority 1999, dated 2008) are melting point, Ki and minimal effective dose values, retold here.

For data set [1], the target named is T1, neuronal nicotinic acetylcholine receptors (Rattus norvegicus, UniProt P09483+P12390).
T1 construct: crude synaptic membrane preparations from whole rat brain; from tissue; host or cells: whole rat brain, crude synaptic membranes
As to the kind of experiment: Binding of [3H]-cytisine to neuronal nicotinic acetylcholine receptors, crude synaptic membranes from whole rat brain. The protocol:
The In Vitro protocols for determination of nicotinic acetylcholine channel receptor binding potencies of ligands were determined as follows.
Binding of [^3H]-cytisine ([^3 H]-CYT) to neuronal nicotinic acetylcholine receptors was accomplished using crude synaptic membrane preparations from whole rat brain (Pabreza et al., Molecular Pharmacol., 1990, 39:9). Washed membranes were stored at —80° C. prior to use. Frozen aliquots were slowly thawed and resuspended in 20 volumes of buffer (containing: 120 mM NaCl, 5 mM KCl, 2 mM MgCl2, 2 mM CaCl2 and 50 mM Tris-Cl, pH 7.4 @4° C.). After centrifuging at 20,000×g for 15 minutes, the pellets were resuspended in 30 volumes of buffer.
The test compounds were dissolved in water to make 10 mM stock solutions. Each solution was then diluted (1:100) with buffer (as above) and further taken through seven serial log dilutions of produce test solution from 10^−5 to 10^−11 M.
Homogenate (containing 125-150 μg protein) was added to triplicate tubes containing the range of concentrations of test compound described above and [^3H]-CYT (1.25 nM) in a final volume of 500 μL. Samples were incubated for 60 minutes at 4° C., then rapidly filtered through Whatman GF/B filters presoaked in 0.5% polyethyleneimine using 3×4 mL of ice-cold buffer. The filter are counted in 4 mL of Ecolume® (ICN). Nonspecific binding was determined in the presence of 10 μM (−)-nicotine and values were expressed as a percentage of total binding. IC50 values were determined with the RS-1 (BBN) nonlinear least squares curve-fitting program and IC50 values were converted to Ki values using the Cheng and Prusoff correction ([…].

A further data set relates to mouse hot plate paradigm. Put plainly: Mouse hot plate paradigm (analgesia). It counts as in vivo. Particulars: ip, 0.5 h, mice, intraperitoneal, dosed 30 minutes prior to testing, hot plate 55° C., increase in tenth jump latency relative to control, read-out: minimally effective dose (MED). The protocol: An in vivo protocol was utilized to determine the effectiveness of nicotinic acetylcholine receptor ligands as analgesic agents in the mouse hot plate paradigm.
Separate groups of mice, (n=8/group) were utilized for each dose group. All drugs were administered by the intraperitoneal route of administration. Test drugs were dissolved in water to make a 6.2 mM stock solution. Animals were dosed with this solution (10 mL/kg body weight) for a 62 micromol/kg dose. Lower doses were administered similarly, following serial dilution of the stock solution in half-log increments. Animals were dosed 30 minutes prior to testing in the hot plate. The hot-plate utilized was an automated analgesia monitor (Model #AHP16AN, Omnitech Electronics, Inc. of Columbus, Ohio). The temperature of the hot plate was maintained at 55° C. and a cut-off time of 180 seconds was utilized. Latency until the tenth jump was recoreded as the dependent measure. An increase in the tenth jump latency relative to the control was considered an effect.

Structures can show the parent of a compound that is named as a salt.

T1 sequence (P09483 31-630): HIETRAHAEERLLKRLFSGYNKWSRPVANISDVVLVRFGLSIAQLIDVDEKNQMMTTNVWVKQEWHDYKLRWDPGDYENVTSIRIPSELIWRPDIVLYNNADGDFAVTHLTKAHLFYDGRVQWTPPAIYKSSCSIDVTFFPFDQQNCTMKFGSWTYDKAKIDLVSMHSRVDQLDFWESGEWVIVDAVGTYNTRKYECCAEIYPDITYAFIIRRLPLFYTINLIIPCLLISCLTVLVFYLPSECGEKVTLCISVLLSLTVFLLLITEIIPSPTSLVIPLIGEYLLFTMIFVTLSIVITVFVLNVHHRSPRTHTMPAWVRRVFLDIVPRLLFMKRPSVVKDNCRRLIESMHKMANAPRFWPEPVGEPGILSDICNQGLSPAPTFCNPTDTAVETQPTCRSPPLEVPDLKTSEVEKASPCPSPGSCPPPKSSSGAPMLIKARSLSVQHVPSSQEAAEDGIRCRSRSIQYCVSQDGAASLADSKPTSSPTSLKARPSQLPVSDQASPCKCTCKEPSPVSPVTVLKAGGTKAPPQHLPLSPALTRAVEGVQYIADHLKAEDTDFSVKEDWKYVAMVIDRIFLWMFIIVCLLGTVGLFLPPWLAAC
T1 sequence (P12390 25-500): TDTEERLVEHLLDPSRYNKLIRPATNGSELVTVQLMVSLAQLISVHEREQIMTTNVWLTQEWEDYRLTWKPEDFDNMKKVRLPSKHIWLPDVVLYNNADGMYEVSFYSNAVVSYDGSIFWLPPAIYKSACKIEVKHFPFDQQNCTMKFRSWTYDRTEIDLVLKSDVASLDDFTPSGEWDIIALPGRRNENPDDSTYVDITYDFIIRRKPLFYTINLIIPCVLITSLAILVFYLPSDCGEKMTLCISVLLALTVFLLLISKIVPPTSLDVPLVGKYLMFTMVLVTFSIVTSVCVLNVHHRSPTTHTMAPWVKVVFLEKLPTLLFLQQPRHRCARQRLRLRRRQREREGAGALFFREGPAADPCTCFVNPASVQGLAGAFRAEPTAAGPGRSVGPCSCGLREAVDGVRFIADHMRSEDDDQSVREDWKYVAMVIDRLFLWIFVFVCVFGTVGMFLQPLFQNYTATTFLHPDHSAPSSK

In the case of `N[C@@H]1CCN(c2ccc(Cl)nc2)C1` (as salt: benzenesulfonate) [Example 4, (3R)-1-(6-chloro-3-pyridinyl)pyrrolidinylamine 4-methylbenzenesulfonate], the melting point lay in the range of 224.5 to 225.5 °C.

As for `CN[C@@H]1CCN(c2ccc(Cl)nc2)C1` [Example 5, N-[(3R)-1-(6-chloro-3-pyridinyl)pyrrolidinyl]-N-methylamine hydrochloride], in data set [1], the affinity, expressed as Ki, was 5.5 nM. Besides, the minimal effective dose in the data set with mouse hot plate paradigm stood at 62 µmol/kg.

Compound `CN[C@H]1CCCN(c2cccnc2)C1` [Example 42, N-methyl-N-[(3S)-1-(3-pyridinyl)piperidin-3-yl]amine bis(4-methylbenzenesulfonate)] had an inhibition constant (Ki) in data set [1] of 83 nM. Besides, in the data set on mouse hot plate paradigm, the minimal effective dose turned out to be 62 µmol/kg.

With `CN[C@@H]1CCN(c2cncc(C(F)(F)F)c2)C1` (as salt: hydrochloride) [Example 12, N-methyl-N-{(3R)-1-[5-(trifluoromethyl)-3-pyridinyl]pyrrolidinyl}amine hydrochloride], the melting point is 265 °C (dec.).

Take `CN[C@H]1CCN(c2ccc(Cl)nc2)C1` [Example 1, N-[(3S)-1-(6-chloro-3-pyridinyl)pyrrolidinyl]-N-methylamine hydrochloride]: the affinity in data set [1] corresponds to a Ki of 44 nM. In addition, in the data set on mouse hot plate paradigm, the minimal effective dose was determined as 62 µmol/kg.

`Cc1cc(N2CC[C@H](N)C2)cnc1F` [Example 25, (3S)-1-(6-fluoro-5-methyl-3-pyridinyl)pyrrolidinylamine hydrochloride] returned a Ki in data set [1] of 0.34 nM. The minimal effective dose with mouse hot plate paradigm came out at 6.2 µmol/kg.

In the case of `CN[C@H]1CCN(c2ccc(Cl)nc2)C1` (as salt: hydrochloride) [Example 1, N-[(3S)-1-(6-chloro-3-pyridinyl)pyrrolidinyl]-N-methylamine hydrochloride], the melting point is over 250 °C.

`CN(C)[C@H]1CCN(c2ccc(Cl)nc2)C1` (as salt: benzenesulfonate) [Example 3, N-[(3S)-1-(6-chloro-3-pyridinyl)pyrrolidinyl]-N,N-dimethylamine 4-methylbenzenesulfonate] registered a melting point of 190 to 191.5 °C.

`N[C@H]1CCN(c2cccnc2)C1` [Example 8, (3S)-1-(3-pyridinyl)pyrrolidinylamine 4-methylbenzenesulfonate] had a Ki in data set [1] of 0.23 nM. Moreover, the minimal effective dose in the data set with mouse hot plate paradigm came to 19 µmol/kg.

In the case of `N[C@@H]1CCN(c2cnc(Cl)c(Cl)c2)C1` [Example 21, (3R)-1-(5,6-dichloro-3-pyridinyl)pyrrolidinylamine dihydrochloride], the affinity in data set [1], expressed as Ki, was 0.13 nM. For the same compound, the minimal effective dose with mouse hot plate paradigm worked out at 6.2 µmol/kg.

In the case of `Cc1cc(N2CC[C@@H](N)C2)cnc1Cl` [Example 15, (3R)-1-(6-chloro-5-methyl-3-pyridinyl)pyrrolidinylamine hydrochloride], the Ki in data set [1] turned out to be 0.03 nM. The minimal effective dose in the data set with mouse hot plate paradigm is 6.2 µmol/kg.

Compound `CN[C@@H]1CCN(c2cnc(Cl)c(Cl)c2)C1` [Example 22, N-[(3R)-1-(5,6-dichloro-3-pyridinyl)pyrrolidinyl]-N-methylamine hydrochloride] registered an inhibition constant (Ki) in data set [1] of 13 nM. Also, in the data set with mouse hot plate paradigm, the minimal effective dose came out at 19 µmol/kg.

Turning to `NC1CCN(c2ccc(Cl)nc2)C1` (stereo not drawn) [Example 7, 1-(6-chloro-3-pyridinyl)-3-pyrrolidinylamine 4-methylbenzenesulfonate], the Ki in data set [1] turned out to be 0.12 nM. Also, the minimal effective dose with mouse hot plate paradigm was determined as 6.2 µmol/kg.

In data set [1], `N[C@@H]1CCCN(c2cccnc2)C1` [Example 43, (3R)-1-(3-pyridinyl)piperidinylamine bis(4-methylbenzenesulfonate)] yielded a Ki of 1.1 nM. For the same compound, the minimal effective dose in the data set with mouse hot plate paradigm came out at 0.62 µmol/kg.

Turning to `CN[C@H]1CCN(c2cccnc2)C1` [Example 9, N-methyl-N-[(3S)-1-(3-pyridinyl)pyrrolidinyl]amine dihydrochloride], the Ki in data set [1] is 2 nM. Also, in the data set with mouse hot plate paradigm, the minimal effective dose is 62 µmol/kg.

Compound `N[C@H]1CCCN(c2cccnc2)C1` [Example 41, (3S)-1-(3-pyridinyl)piperidinylamine bis(4-methylbenzenesulfonate)] returned a Ki in data set [1] of 0.89 nM. Moreover, the minimal effective dose in the data set on mouse hot plate paradigm worked out at 19 µmol/kg.

As to `COc1cc(N2CC[C@H](N)C2)cnc1Cl` [Example 23, (3S)-1-(6-chloro-5-methoxy-3-pyridinyl)pyrrolidinylamine dihydrochloride], the inhibition constant (Ki) in data set [1] came to 0.13 nM. For the same compound, the minimal effective dose in the data set with mouse hot plate paradigm is 62 µmol/kg.

In data set [1], `N[C@@H]1CCCN(c2ccc(Cl)nc2)C1` [Example 47, (3R)-1-(6-chloro-3-pyridinyl)piperidin-3-ylamine bis(4-methylbenzenesulfonate)] gave a Ki of 0.38 nM. The minimal effective dose in the data set with mouse hot plate paradigm turned out to be 1.9 µmol/kg.

As to `N[C@@H]1CCN(c2cncc([N+](=O)[O-])c2)C1` [Example 31, (3R)-1-(5-nitro-3-pyridinyl)pyrrolidinylamine fumarate], the Ki in data set [1] stood at 3.5 nM. For the same compound, in the data set on mouse hot plate paradigm, the minimal effective dose turned out to be 6.2 µmol/kg.

`CN[C@H]1CCN(c2cnc(Cl)c(C)c2)C1` [Example 18, N-[(3S)-1-(6-chloro-5-methyl-3-pyridinyl)pyrrolidinyl]-N-methylamine dihydrochloride] yielded an inhibition constant Ki in data set [1] of 0.58 nM. The minimal effective dose in the data set on mouse hot plate paradigm was 6.2 µmol/kg.

In turn, `CN[C@H]1CCN(c2cnc(Cl)c(OC)c2)C1` [Example 24, N-[(3S)-1-(6-chloro-5-methoxy-3-pyridinyl)pyrrolidinyl]-N-methylamine dihydrochloride] displayed a Ki in data set [1] of 4.1 nM. For the same compound, the minimal effective dose in the data set on mouse hot plate paradigm worked out at 62 µmol/kg.

On to `N[C@H]1CCN(c2cnc(Cl)c(Cl)c2)C1` [Example 19, (3S)-1-(5,6-dichloro-3-pyridinyl)pyrrolidinylamine dihydrochloride], for which the affinity in data set [1] corresponds to a Ki of 0.05 nM. Besides, the minimal effective dose in the data set with mouse hot plate paradigm was 6.2 µmol/kg.

Consider `N[C@H]1CCCN(c2ccc(Cl)nc2)C1` [Example 45, (3S)-1-(6-chloro-3-pyridinyl)piperidinylamine bis(4-methylbenzenesulfonate)], for which the inhibitory constant (Ki) in data set [1] came to 0.35 nM. The minimal effective dose with mouse hot plate paradigm turned out to be 0.62 µmol/kg.

Compound `NC1CCCN(c2ccc(Cl)nc2)C1` (stereo not drawn) [Example 38, 1-(6-chloro-3-pyridinyl)-3-piperidinylamine 4-methylbenzenesulfonate] showed an inhibition constant (Ki) in data set [1] of 0.51 nM. Besides, the minimal effective dose with mouse hot plate paradigm stood at 6.2 µmol/kg.

In data set [1], `Cc1cc(N2CC[C@H](N)C2)cnc1Cl` [Example 17, (3S)-1-(6-chloro-5-methyl-3-pyridinyl)pyrrolidinylamine dihydrochloride] registered an inhibitory constant (Ki) of 0.03 nM. Further, the minimal effective dose in the data set on mouse hot plate paradigm was 6.2 µmol/kg.

On to `N[C@H]1CCN(c2cncc([N+](=O)[O-])c2)C1` [Example 29, (3S)-1-(5-nitro-3-pyridinyl)pyrrolidinylamine fumarate], for which the Ki in data set [1] stood at 0.7 nM. Also, in the data set on mouse hot plate paradigm, the minimal effective dose was determined as 19 µmol/kg.

Take `N[C@@H]1CCN(c2ccc(Cl)nc2)C1` [Example 4, (3R)-1-(6-chloro-3-pyridinyl)pyrrolidinylamine 4-methylbenzenesulfonate]: affinity in data set [1] was put at a Ki of 0.22 nM. Also, the minimal effective dose in the data set on mouse hot plate paradigm was 1.9 µmol/kg.

In data set [1], `CN[C@@H]1CCN(c2cnc(Cl)c(C)c2)C1` [Example 16, N-[(3R)-1-(6-chloro-5-methyl-3-pyridinyl)pyrrolidinyl]-N-methylamine dihydrochloride] gave an inhibition constant Ki of 5.1 nM. In addition, the minimal effective dose in the data set on mouse hot plate paradigm was 1.9 µmol/kg.

Consider `CN[C@H]1CCN(c2cnc(Cl)c(Cl)c2)C1` [Example 20, N-[(3S)-1-(5,6-dichloro-3-pyridinyl)pyrrolidinyl]-N-methylamine hydrochloride], for which the Ki in data set [1] was 0.59 nM. Moreover, the minimal effective dose in the data set with mouse hot plate paradigm turned out to be 19 µmol/kg.

In data set [1], `N[C@H]1CCN(c2ccc(Cl)nc2)C1` [Example 2, (3S)-1-(6-chloro-3-pyridinyl)pyrrolidinylamine dihydrochloride] had an inhibition constant Ki of 0.1 nM. Moreover, the minimal effective dose in the data set with mouse hot plate paradigm stood at 6.2 µmol/kg.

As for `CN(C)[C@H]1CCN(c2ccc(Cl)nc2)C1` [Example 3, N-[(3S)-1-(6-chloro-3-pyridinyl)pyrrolidinyl]-N,N-dimethylamine 4-methylbenzenesulfonate], affinity in data set [1] was put at a Ki of 61 nM. The minimal effective dose in the data set with mouse hot plate paradigm stood at 62 µmol/kg.

Regarding `CN[C@H]1CCCN(c2ccc(Cl)nc2)C1` [Example 46, N-[(3S)-1-(6-chloro-3-pyridinyl)piperidin-3-yl]-N-methylamine dihydrochloride], the Ki in data set [1] was determined as 60 nM. Moreover, the minimal effective dose in the data set on mouse hot plate paradigm amounted to 62 µmol/kg.

A word on the melting point: it is the temperature, or range, at which the solid turns liquid. As usually defined, the Ki is a measure of affinity in units of concentration, obtained from inhibition or displacement. A high value points to weaker binding.
